Like-named read-outs stand apart in the source and are kept apart here.
Target: Kv1.5 (Homo sapiens, UniProt P22460)
Assay: Kv1.5 inhibition assay (IKur inhibitor assay per cited references)
Type: cell-based
Conditions: for Kv1.5% inhibition / inhibition at 0.3 µM: at 0.3 μM
Description: Assays to determine the degree of activity of a compound as an IKur inhibitor are well known in the art and are described in references such as J. Gen. Physiol. Apr.; 101 (4):513-43, and Br. J. Pharmacol. 1995 May; 115(2):267-74.

[1] = given as % inhibition, value given as a concentration in μM, read-out: Kv1.5% inhibition

Chain of Kv1.5 (P22460 whole entry): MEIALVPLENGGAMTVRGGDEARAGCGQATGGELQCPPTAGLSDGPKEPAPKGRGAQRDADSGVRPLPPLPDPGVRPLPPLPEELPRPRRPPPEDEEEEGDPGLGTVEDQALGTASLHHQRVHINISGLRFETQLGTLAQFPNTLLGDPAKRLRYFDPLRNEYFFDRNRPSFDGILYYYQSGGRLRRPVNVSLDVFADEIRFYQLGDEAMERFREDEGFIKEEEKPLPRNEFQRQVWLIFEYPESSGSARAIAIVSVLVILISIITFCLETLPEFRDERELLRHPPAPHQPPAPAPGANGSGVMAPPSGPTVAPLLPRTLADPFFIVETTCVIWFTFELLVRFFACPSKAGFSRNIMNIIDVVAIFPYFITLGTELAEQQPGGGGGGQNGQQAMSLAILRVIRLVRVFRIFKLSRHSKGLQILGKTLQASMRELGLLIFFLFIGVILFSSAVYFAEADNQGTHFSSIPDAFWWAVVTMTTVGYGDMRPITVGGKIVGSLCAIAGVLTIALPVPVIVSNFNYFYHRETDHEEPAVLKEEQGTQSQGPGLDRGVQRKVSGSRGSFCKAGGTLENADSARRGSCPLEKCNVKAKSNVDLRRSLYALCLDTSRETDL

| Compound | Kv1.5% inhibition | inhibition at 0.3 µM | other results |
| --- | --- | --- | --- |
| COc1ccc(S(=O)(=O)C2=C(C)Nc3cc(C(F)(F)F)nn3C2c2ccc(Cl)cc2)cc1OC (single isomer, unassigned) [Example 51 Isomer 2, 7-(4-Chlorophenyl)-6-(3,4-dimethoxyphenylsulfonyl)-5-methyl-2-(trifluoromethyl)-4,7-dihydropyrazolo[1,5-a]pyrimidine] | 79.2% | – | – |
| CC1=C(S(=O)(=O)NCc2ccccc2)C(c2ccc(Cl)cc2)n2nc(C)cc2N1 (single isomer, unassigned) [Example 55 Isomer 1, N-Benzyl-7-(4-chlorophenyl)-2,5-dimethyl-4,7-dihydropyrazolo[1,5-a]pyrimidine-6-sulfonamide] | – | 22.9% | – |
| CC1=C(S(=O)(=O)c2ccccc2)C(c2ccc(F)cc2)n2nc(C(F)(F)F)cc2N1 (single isomer, unassigned) [Example 36 Isomer 1, 7-(4-Fluorophenyl)-5-methyl-6-(phenylsulfonyl)-2-(trifluoromethyl)-4,7-dihydropyrazolo[1,5-a]pyrimidine] | – | – | IC50 (read-out: Kv1.5 IC50): 0.208 µM |
| COc1ccc(S(=O)(=O)N(C)C(=O)C2=C(C)Nc3cc(C)nn3C2c2ccc(Cl)c(Cl)c2)cc1 (racemic) [Example 77, 7-(3,4-Dichlorophenyl)-N-(4-methoxyphenylsulfonyl)-N,2,5-trimethyl-4,7-dihydropyrazolo[1,5-a]pyrimidine-6-carboxamide] | – | – | IC50 [1]: 0.172 µM |
| COc1ccc(S(=O)(=O)N(C)C(=O)C2=C(C)Nc3cc(C)nn3C2c2ccc(Cl)c(Cl)c2)cc1 (single isomer, unassigned) [Example 81 Isomer 2, 7-(3,4-Dichlorophenyl)-N-(4-methoxyphenylsulfonyl)-N,2,5-trimethyl-4,7-dihydropyrazolo[1,5-a]pyrimidine-6-carboxamide] | – | – | IC50 [1]: 0.098 µM |
| COc1ccc(S(=O)(=O)C2=C(CO)Nc3cc(C(F)(F)F)nn3C2c2ccc(Cl)c(Cl)c2)cc1 (racemic) [Example 48, (7-(3,4-Dichlorophenyl)-6-(4-methoxyphenylsulfonyl)-2-(trifluoromethyl)-4,7-dihydropyrazolo[1,5-a]pyrimidin-5-yl)methanol] | – | 15% | – |
| CC1=C(S(=O)(=O)c2ccc(Cl)cc2)C(c2ccc(F)cc2)n2nc(C(F)(F)F)cc2N1 (single isomer, unassigned) [Example 43 Isomer 1, 6-(4-Chlorophenylsulfonyl)-7-(4-fluorophenyl)-5-methyl-2-(trifluoromethyl)-4,7-dihydropyrazolo[1,5-a]pyrimidine] | – | 83.6% | – |
| CCN(CC)S(=O)(=O)C1=C(C)Nc2cc(C(F)(F)F)nn2C1c1ccc(Cl)c(Cl)c1 (single isomer, unassigned) [Example 64 Isomer 2, 7-(3,4-Dichlorophenyl)-N,N-diethyl-5-methyl-2-(trifluoromethyl)-4,7-dihydropyrazolo[1,5-a]pyrimidine-6-sulfonamide] | 60% | – | – |
| CC1=C(S(=O)(=O)c2ccccc2)C(c2ccc(Cl)c(Cl)c2)n2nc(C)cc2N1 (single isomer, unassigned) [Example 3 Isomer 1, 7-(3,4-Dichlorophenyl)-2,5-dimethyl-6-(phenylsulfonyl)-4,7-dihydropyrazolo[1,5-a]pyrimidine] | – | – | IC50 (read-out: Kv1.5 IC50): 0.041 µM |
| COc1cccc(S(=O)(=O)C2=C(C)Nc3cc(C(F)(F)F)nn3C2c2ccc(Cl)c(Cl)c2)c1 (single isomer, unassigned) [Example 39 Isomer 2, 7-(3,4-Dichlorophenyl)-6-(3-methoxyphenylsulfonyl)-5-methyl-2-(trifluoromethyl)-4,7-dihydropyrazolo[1,5-a]pyrimidine] | 79.6% | – | – |
| CC1=C(S(=O)(=O)c2ccccc2)C(c2ccc(Cl)cc2)n2nc(C(F)(F)F)cc2N1 (single isomer, unassigned) [Example 26 Isomer 1, 7-(4-Chlorophenyl)-5-methyl-6-(phenylsulfonyl)-2-(trifluoromethyl)-4,7-dihydropyrazolo[1,5-a]pyrimidine] | – | 85.8% | – |
| CC1=C(S(=O)(=O)NCc2ccccc2)C(c2ccc(Cl)c(Cl)c2)n2nc(C(F)(F)F)cc2N1 (single isomer, unassigned) [Example 56 Isomer 1, N-Benzyl-7-(3,4-dichlorophenyl)-5-methyl-2-(trifluoromethyl)-4,7-dihydropyrazolo[1,5-a]pyrimidine-6-sulfonamide] | – | 50% | – |
| CC1=C(S(=O)(=O)c2ccc(Cl)cc2)C(c2cncnc2)n2nc(C(F)(F)F)cc2N1 (single isomer, unassigned) [Example 50 Isomer 1, 6-(4-Chlorophenylsulfonyl)-5-methyl-7-(pyrimidin-5-yl)-2-(trifluoromethyl)-4,7-dihydropyrazolo[1,5-a]pyrimidine] | – | 15.1% | – |
| CC1=C(S(=O)(=O)NC(C)(C)C)C(c2ccc(Cl)cc2)n2nc(C(F)(F)F)cc2N1 (racemic) [Example 57, N-tert-Butyl-7-(4-chlorophenyl)-5-methyl-2-(trifluoromethyl)-4,7-dihydropyrazolo[1,5-a]pyrimidine-6-sulfonamide] | – | 34.1% | – |
| CC1=C(S(=O)(=O)NC2CCCCC2)C(c2ccc(Cl)cc2)n2nc(C(F)(F)F)cc2N1 (racemic) [Example 52, 7-(4-Chlorophenyl)-N-cyclohexyl-5-methyl-2-(trifluoromethyl)-4,7-dihydropyrazolo[1,5-a]pyrimidine-6-sulfonamide] | – | 49.6% | – |

Second part, led by results:

| Kv1.5% inhibition | inhibition at 0.3 µM | Compound | other results |
| --- | --- | --- | --- |
| 37% | – | CC1=C(C(=O)N(C)S(=O)(=O)c2ccc(F)cc2)C(c2ccc(Cl)c(Cl)c2)n2nc(C)cc2N1 (single isomer, unassigned) [Example 80 Isomer 1, 7-(3,4-Dichlorophenyl)-N-(4-fluorophenylsulfonyl)-N,2,5-trimethyl-4,7-dihydropyrazolo[1,5-a]pyrimidine-6-carboxamide] | – |
| 91% | – | CCN(C(=O)C1=C(C)Nc2cc(C)nn2C1c1ccc(Cl)c(Cl)c1)S(=O)(=O)c1c(C)noc1C (single isomer, unassigned) [Example 97 Isomer 1, 7-(3,4-Dichlorophenyl)-N-(3,5-dimethylisoxazol-4-ylsulfonyl)-N-ethyl-2,5-dimethyl-4,7-dihydropyrazolo[1,5-a]pyrimidine-6-carboxamide] | – |
| 19% | – | CC1=C(C(=O)N2CCCCS2(=O)=O)C(c2ccc(Cl)c(Cl)c2)n2nc(C)cc2N1 (single isomer, unassigned) [Example 84 Isomer 1] | – |
| 85% | – | CC1=C(C(=O)N(C)S(=O)(=O)c2ccc(F)cc2)C(c2ccc(Cl)c(Cl)c2)n2nc(C)cc2N1 (single isomer, unassigned) [Example 80 Isomer 2, 7-(3,4-Dichlorophenyl)-N-(4-fluorophenylsulfonyl)-N,2,5-trimethyl-4,7-dihydropyrazolo[1,5-a]pyrimidine-6-carboxamide] | – |
| – | 7% | CC1=C(S(=O)(=O)N2CCCC2)C(c2ccc(Cl)c(Cl)c2)n2nc(C)nc2N1 (racemic) [Example 68, 7-(3,4-Dichlorophenyl)-2,5-dimethyl-6-(pyrrolidin-1-ylsulfonyl)-4,7-dihydro-[1,2,4]triazolo[1,5-a]pyrimidine] | – |
| 50% | – | CCN(C(=O)C1=C(C)Nc2cc(C)nn2C1c1ccc(Cl)c(Cl)c1)S(=O)(=O)c1c(C)noc1C (single isomer, unassigned) [Example 97 Isomer 2, 7-(3,4-Dichlorophenyl)-N-(3,5-dimethylisoxazol-4-ylsulfonyl)-N-ethyl-2,5-dimethyl-4,7-dihydropyrazolo[1,5-a]pyrimidine-6-carboxamide] | – |

From patent US7507730B2, “Substituted pyrazolo[1,5-a]pyrimidines as potassium channel activators” (Bristol-Myers Squibb Company, priority 2005, dated 2009)
